# Laboratory results from patent publication US20080076824A1, “Compounds That Inhibit Replication Of Human Immunodeficiency Virus” (priority 2004, published 2008).
# “And” between values parts separate entries of the source, which are not always exact repeats. Equal entries are not always repeated. “Also recorded” adds a separate entry of the source. Where two headings read alike, the source gives them in different places. Residues, ends and D or L forms follow the SMILES beside them.
# Tests used:
# [1] = system: HIV-2 (ROD); test: microbe, parasite or virus in culture; assay type: cell-based; details: CEM cell cultures, syncytia formation, Table 1; read-out: EC50 HIV-2 ROD
# How it was run: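 CEM, C8166 or MT-4 cells (4 to 5×10^5 cells/ml) infected with HIV-2 ROD at ~100 CCID50/ml, then incubated with 5-fold compound dilutions at 37 °C for 4–5 days. Giant cell formation scored microscopically in CEM and C8166 cultures; MT-4 viability counted by trypan blue exclusion.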
# [2] = system: HIV-1 (IIIB); test: microbe, parasite or virus in culture
# How it was run: (§1)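 MT-4, C8166 or CEM cells (4 to 5×10^5 cells/ml) infected at ~100 CCID50/ml, incubated with 5-fold compound dilutions at 37 °C for 4–5 days. Read-out: microscopic giant-cell formation in CEM and C8166 cultures; viable-cell count by trypan blue in MT-4.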
# [3] = system: HIV-2(ROD); test: microbe, parasite or virus in culture
# How it was run: as §1
# [4] = system: Coxsackie virus B4; test: Antiviral activity in HeLa cell cultures, Coxsackie virus B4; assay type: cell-based; details: reduces virus-induced cytopathogenicity by 50%, read-out: Minimum inhibitory concentration Coxsackie virus B4
# Experimental: The cytotoxicity and antiviral activity of various concentrations of G-NH2 and GPG-NH2 were evaluated in cell cultures that were infected with various types of viruses. Conventional host cell culture, viral infection, and infectivity analysis for each different type of cell and virus were followed. Compounds that were known to inhibit replication of the particular types of viruses analyzed were used as controls.
# [5] = system: HIV (SF2 virus); test: HIV infectivity assay, SF2-infected H9 cells, reverse transcriptase (RT) quantification in supernatant; assay type: cell-based; details: for RT mean: mean of replicates; for RT: single replicate
# [6] = system: HIV (SF2 virus); test: HIV infectivity assay, SF2-infected H9 cells, p24 quantification; assay type: cell-based; details: for OD1: replicates (1)-(3)
# Experimental: The remaining wells were filled with sterile distilled water. The cell culture plates were incubated at 37° C. and 5% CO2. After four days the medium was changed, after eight days the medium was changed and the cells were collected. After 11 days, the infection was stopped, the cells were viewed in a 10× magnification microscope and 650 μl of each cell supernatant was collected and frozen at −80° C. for further analysis. After five more days, the supernatants were thawed and used in a conventional reverse transcriptase (RT) activity assay (e.g., Roche AMPLICOR MONITOR™) or a p24 quantification assay (e.g., Abbott Laboratories, Chicago). (See U.S. Pat. No. 6,258,932 and U.S. patent application Ser. No. 10/235,158, both of which are hereby expressly incorporated by reference in its entireties).
# […] The cells in the samples were counted and then centrifuged. The cells were then resuspended in 10 ml of RPMI 1640 (containing fetal calf serum) and either […] Metabolite X or 100 μM GPG-NH2. Uninfected control and untreated control samples were also included in the experiment. The samples were then incubated overnight at 37° C. at 5% CO2.
# Then, the amount of p24 in the samples was analysed using a conventional p24 detection assay (see U.S. Pat. No. 6,258,932).
# Three replicate samples (“replicates”) of uninfected samples and untreated samples were also included in the experiment as controls. The inhibition of HIV replication was monitored by quantifying the levels of p24 using a conventional detection kit.
# Three replicates of unninfected samples and untreated samples were also included in the experiment as controls.
# [7] = system: HIV-1 (IIIB)
# [8] = system: Herpes simplex virus-2 (G); details: read-out: Minimum inhibitory concentration Herpes simplex virus-2 (G); HEL; reduces virus-induced cytopathogenicity by 50%
# [9] = system: Vesicular stomatitis virus; details: read-out: Minimum inhibitory concentration Vesicular stomatitis virus; HEL; reduces virus-induced cytopathogenicity by 50%
# [10] = system: Herpes simplex virus-1 TK^− KOS ACV^r; details: read-out: Minimum inhibitory concentration Herpes simplex virus-1 TK^− KOS ACV^r; HEL; reduces virus-induced cytopathogenicity by 50%
# [11] = system: Vesicular stomatitis virus; details: read-out: Minimum inhibitory concentration Vesicular stomatitis virus; HeLa; reduces virus-induced cytopathogenicity by 50%
# [12] = system: Respiratory syncytial virus; details: read-out: Minimum inhibitory concentration Respiratory syncytial virus; HeLa; reduces virus-induced cytopathogenicity by 50%
# [13] = read-out: EC50 (C8166) HIV-1 (IIIB), Table 19
# [14] = read-out: EC50 (MT-4) HIV-1 (IIIB), Table 19
# [15] = read-out: EC50 (C8166) HIV-2 (ROD), Table 19
# [16] = read-out: EC50 (MT-4) HIV-2 (ROD), Table 19
# [17] = read-out: 50% effective concentration, HIV replication in CEM cell cultures
# [18] = read-out: EC50 (CEM) HIV-1 (IIIB), Table 19
# [19] = read-out: EC50 HIV-1 IIIB, CEM cell cultures, syncytia formation, Table 1
smiles,measurement,setting,value
"NCC(N)=O [G-NH2, glycinamide]",EC50,[1],35 ± 8.7 µM
same,EC50,[2]; [13],150 µM
same,EC50,"[2]; read-out: EC50 (C8166) HIV-1 (IIIB), Table 20",150 µM
same,EC50,[2]; [14],> 500 µM
same,EC50,"[2]; read-out: EC50 (MT-4) HIV-1(IIIB), Table 20, related set of experiments",> 500 µM
same,EC50,[3]; [15],150 µM
same,EC50,"[3]; read-out: EC50 (C8166) HIV-2 (ROD), Table 20",150 µM
same,EC50,[3]; [16],> 500 µM
same,EC50,"[3]; read-out: EC50 (MT-4) HIV-2 (ROD), Table 20",> 500 µM
same,EC50,[4],> 2000 µM
same,OD405-620,"[5]; 0.5 μM, fetal calf serum",0.871 and 0.896 and 0.908
same,OD405-620 - Blank,"[5]; 0.5 μM, fetal calf serum",0.845 and 0.87 and 0.882
same,RT mean,"[5]; 0.5 μM, fetal calf serum",9152 pg/mL
same,RT,"[5]; 0.5 μM, fetal calf serum",8927 pg/mL and 9199 pg/mL and 9329 pg/mL
same,OD405-620,"[5]; 1 μM, fetal calf serum",0.563 and 0.672 and 0.712
same,OD405-620 - Blank,"[5]; 1 μM, fetal calf serum",0.537 and 0.646 and 0.686
same,RT mean,"[5]; 1 μM, fetal calf serum",6514 pg/mL
same,RT,"[5]; 1 μM, fetal calf serum",5579 pg/mL and 6764 pg/mL and 7199 pg/mL
same,OD405-620,"[5]; 2 μM, fetal calf serum",0.868 and 0.903 and 0.528
same,OD405-620 - Blank,"[5]; 2 μM, fetal calf serum",0.842 and 0.877 and 0.502
same,RT mean,"[5]; 2 μM, fetal calf serum",7789 pg/mL
same,RT,"[5]; 2 μM, fetal calf serum",8895 pg/mL and 9275 pg/mL and 5199 pg/mL
same,OD405-620,"[5]; 4 μM, fetal calf serum",0.781 and 0.493 and 0.539
same,OD405-620 - Blank,"[5]; 4 μM, fetal calf serum",0.755 and 0.467 and 0.513
same,RT mean,"[5]; 4 μM, fetal calf serum",6029 pg/mL
same,RT,"[5]; 4 μM, fetal calf serum",7949 pg/mL and 4818 pg/mL and 5318 pg/mL
same,OD405-620,"[5]; 8 μM, fetal calf serum",0.274 and 0.302 and 0.332
same,OD405-620 - Blank,"[5]; 8 μM, fetal calf serum",0.248 and 0.276 and 0.306
same,RT mean,"[5]; 8 μM, fetal calf serum",2750 pg/mL
same,RT,"[5]; 8 μM, fetal calf serum",2438 pg/mL and 2742 pg/mL and 3068 pg/mL
same,OD405-620,"[5]; 16 μM, fetal calf serum",0.563 and 0.861 and 0.902
same,OD405-620 - Blank,"[5]; 16 μM, fetal calf serum",0.537 and 0.835 and 0.876
same,RT mean,"[5]; 16 μM, fetal calf serum",158 pg/mL
same,RT,"[5]; 16 μM, fetal calf serum",112 pg/mL and 176 pg/mL and 185 pg/mL
same,OD405-620,"[5]; 32 μM, fetal calf serum",0.141 and 0.155
same,OD405-620 - Blank,"[5]; 32 μM, fetal calf serum",0.115 and 0.129
same,RT mean,"[5]; 32 μM, fetal calf serum",21 pg/mL
same,RT,"[5]; 32 μM, fetal calf serum",20 pg/mL and 23 pg/mL
same,"inhibition of HIV replication, reverse transcriptase (RT) activity",[5]; cultures containing boiled fetal calf serum,unable to inhibit replication of HIV; also recorded: did not
same,OD1,"[6]; 50 μM, fetal calf serum",0.182 and 0.105 and 0.319
same,conc p24,"[6]; 50 μM, human serum",714.23 ng/mL and 653.27 ng/mL and 773.51 ng/mL
same,OD2,"[6]; 100 μM, fetal calf serum",0.075 and 0.069 and 0.071
same,conc p24,"[6]; 100 μM, fetal calf serum",0.09 ng/mL and 0.08 ng/mL
same,mean OD,"[6]; 100 μM, fetal calf serum",0.077 and 0.070 and 0.074
same,mean OD - blank,"[6]; 100 μM, fetal calf serum",0.035 and 0.028 and 0.032
same,OD1,"[6]; 100 μM, fetal calf serum",0.078 and 0.071 and 0.077
same,conc p24,"[6]; 100 μM, human serum",780.21 ng/mL and 785.24 ng/mL and 876.34 ng/mL
same,"inhibition of HIV replication, accumulation of p24",[6]; human serum,unable to inhibit HIV replication in human serum
same,ability to inhibit the replication of HIV,"[7]; G-NH2 in medium with heat inactivated serum (10% fetal bovine serum, 95° C., 30 minutes)",lost its ability to inhibit the replication of HIV
same,inhibition of replication of HIV,"[7]; boiled fetal bovine serum or human serum samples, results the experiments will show",does not
same,EC50,[7]; [17],~30 µM
same,EC50,[7]; [18],25 ± 7.1 µM
same,EC50,"[7]; read-out: EC50 (CEM) HIV-1(IIIB), Table 20",25 ± 7.1 µM
same,EC50,[7]; [19],32 ± 7.6 µM
same,EC50,"[7]; read-out: EC50 against HIV-1(IIIB), CEM cell cultures, Table 2",~21.3 µM
same,EC50,"[7]; read-out: EC50 against HIV-1(IIIB), CEM cell cultures, Table 2, listed as Glycinamide",21.3 ± 16.3 µM
same,EC50,[8],> 2000 µM
same,EC50,[9],> 2000 µM
same,EC50,[10],> 2000 µM
same,EC50,[11],> 2000 µM
same,EC50,[12],> 2000 µM
"NCC(=O)N1CCC[C@H]1C(=O)NCC(N)=O [GPG-NH2, glycylprolylglycinamide] (H-Gly-Pro-Gly-NH2)",EC50,[1],30 ± 10 µM
same,EC50,[2]; [13],150 µM
same,EC50,[2]; [14],> 500 µM
same,EC50,[3]; [15],150 µM
same,EC50,[3]; [16],> 500 µM
same,EC50,[4],> 400 µM
same,reverse transcriptase activity in treated samples,"[5]; 100 μM, fetal calf serum",no reverse transcriptase activity
same,"inhibition of HIV replication, p24","[6]; 100 μM, presence of fetal calf serum",effectively inhibited HIV replication
same,EC50,[7]; [17],~30 µM
same,EC50,[7]; [18],30 µM
same,EC50,[7]; [19],35 ± 8.7 µM
same,EC50,[8],> 400 µM
same,EC50,[9],> 400 µM
same,EC50,[10],> 400 µM
same,EC50,[11],> 400 µM
same,EC50,[12],> 400 µM
